Source: patent US20050202423A1, “Method for identifying compounds or lead structures against rna target motifs and rna/protein interactions” (priority 2000, published 2005)
Read-outs that look alike come from different tables or passages of the source.

Columns and labels:
reverse transcriptase = reverse transcriptase (Human immunodeficiency virus type 1 group M subtype B, UniProt P04585); assay: Standard transcriptase assay (specificity control); format: biochemical, HIV-1; settings: 2.5 μM
Description: As a control of the target protein reverse transcriptase, another nucleic acid binding protein from HIV-1 was tested, to check the specificity of the identified Rev-binding antibiotics.

Rev protein [1] = target: T1, Rev protein (Human immunodeficiency virus type 1 group M subtype B, UniProt P04618); assay: Surface plasmon resonance, Rev protein; format: binding, HIV; settings: 100 μM antibiotic, 25° C.
T1 construct: the intact Rev protein and by the Rev peptide
Description: (§1) 20 μl 100 μM antibiotic in test buffer was injected at 25° C., rate 10 μl/s.
(§2) Surface plasmon resonance studies were performed with a Biocore 3000 instrument in the automatic mode.

Rev peptide / AIR = target: T2, Rev peptide / AIR (Human immunodeficiency virus type 1 group M subtype B, UniProt P04618); assay: AIR screen (screen 2) of antibiotics: inhibition of Rev-activated AIR; format: biochemical, HIV; settings: for AIR screen outcome (inhibition of AIR relative to HHR): 100 μM antibiotic, 250 nM Rev peptide
T2 construct: includes aminoacids 34 to 50 of the Rev protein
Description: (§3) Cleavage reactions with multiple turnover were performed at 32° C. in a test buffer containing 50 mM Tris (pH 7.9) and 25 mM NaCl. The total volume of the reactions was 50 μl in plates with 96 flat bottom wells. The fluorescence measurements were performed at an excitation wavelength of 489 nm, FAM emission at 520 nm and with the fluorescence detector Ascent Fluoroscan FL, as described by Jenne, A. et al., Rapid identification and characterization of hammerhead-ribozyme inhibitors using fluorescence-based technology, Nat Biotechnol 19, 56-61 (2001). Ribozyme (10 nM) and FRET-labeled substrate (200 nM) were first incubated in test buffer at room temperature for 5 min, followed by optional addition of Rev and/or antibiotic. The reactions were then incubated for 5 min at 32° C. and started by the addition of MgCl2 to a final concentration of 8 mM, using the dispensing function of the fluorometer. Negative controls were always included for reactions without ribozyme and were subtracted after the measurements.
(§4) Two different screening experiments were performed, one using the RRR reporter construct and the other using AIR. […] Each reaction which contained antibiotics also contained Rev peptide. For each antibiotic, three different reactions were performed: HHR, reporter construct (RRR or AIR), negative controls, which only contained antibiotic and Rev and substrate. The antibiotic concentrations were 100 μM in each case. After subtraction of the negative control, the rise in fluorescence in the first five minutes, corresponding to the initial rate of reaction, was divided by the rise in fluorescence in the standard reaction without antibiotic, containing the active state of the ribozyme (see also FIG. 10).
[…]. […] […].

hammerhead ribozyme HHR = assay: HHR cleavage reaction (internal control, FRET); format: biochemical
Description: as §3, §4

AIR = assay: Dependence of AIR cleavage activity on Rev (FRET ribozyme reaction); format: biochemical; settings: for EC50: read-out: Kact (activation of AIR)
Description: (§5) Negative control reactions without ribozymes were subtracted.
as §3

RRR = assay: Dependence of RRR cleavage activity on Rev (FRET ribozyme reaction); format: biochemical; settings: for IC50: read-out: K inh (inhibition of RRR at the half maximal concentration of Rev)
Description: as §5, §3

Rev peptide = target: T3, Rev peptide (Human immunodeficiency virus type 1 group M subtype B, UniProt P04618); assay: Surface plasmon resonance, Rev peptide; format: binding, HIV; settings: 100 μM antibiotic, 25° C.
T3 construct: includes aminoacids 34 to 50 of the Rev protein
Description: as §1, §2

Rev peptide / RRR = target: T4, Rev peptide / RRR (Human immunodeficiency virus type 1 group M subtype B, UniProt P04618); assay: RRR screen (screen 1) of antibiotics: restoration of cleavage activity; format: biochemical, HIV; settings: 100 μM, 1 μM Rev-peptide
T4 construct: includes aminoacids 34 to 50 of the Rev protein
Description: as §3, with “Negative controls were always included for reactions without ribozyme and were subtracted after the measurements.” left out
Two different screening experiments were performed, one using the RRR reporter construct and the other using AIR. […] After subtraction of the negative control, the rise in fluorescence in the first five minutes, corresponding to the initial rate of reaction, was divided by the rise in fluorescence in the standard reaction without antibiotic, containing the active state of the ribozyme (see also FIG. 10). […]

RRR-RNA = assay: Surface plasmon resonance, RRR-RNA surface; format: binding; settings: 100 μM antibiotic, 25° C.
Description: 20 μl 100 μM antibiotic in test buffer was injected at 25° C., rate 10 μl/s. […] There is no binding to RRR-derivatized surfaces detectable. Coumermycin only binds to Rev, but not to ribozymes. FIG. 13b illustrates the interaction between novobiocin, rosamicin, griseofulvin, streptolydigin and patulin with surfaces derivatized with Rev protein.
Surface plasmon resonance studies were performed with a Biocore 3000 instrument in the automatic mode. Rev protein and peptide surfaces were prepared by injection of 100 μM solutions in 60 mM NaOAc, pH 5.7 on EDC/NHS-activated CM5-Chips, which gave 1800 RU immobilized peptide and 5000 RU protein.

Rev protein [2] = target: T5, Rev protein (HIV-1, UniProt P04618 P04618:1-116); assay: competition; 2 uM RNA competes with IRK-1 for 200 nM Rev; 10 mM HEPES pH 7.4, 100 mM NaCl, 10 mM MgCl2; settings: tags: full-length
Rev protein [3] = target: T5, Rev protein; assay: cleavage_in_vitro; K act of ribozyme; 8 mM MgCl2, 32 C; settings: tags: full-length
Rev protein [4] = target: Rev protein (HIV-1, UniProt P04618 P04618:1-116); assay: inhibition; K inh of ribozyme; 8 mM MgCl2, 32 C; settings: tags: full-length; label: biotin (SPR surface) or 5'-32P (filter); hammerhead ribozyme

Nc1ccn([C@H]2CC[C@@H](COP(=O)(O)OP(=O)(O)OP(=O)(O)O)O2)c(=O)n1 [ddCTP]
inhibition of reverse transcriptase (reverse transcriptase): total inhibition

COC1=CC(=O)C[C@@H](C)[C@]12Oc1c(Cl)c(OC)cc(OC)c1C2=O [griseofulvin]
binding to surface derivatized with Rev protein (Rev protein [1]): Only the antibiotics novobiocin and patulin, which were identified in the course of screening, exhibited binding to Rev

C=C(NC(=O)c1csc(-c2nc3c(cc2O)-c2nc(cs2)C(=O)NC(C(C)O)C(=O)N/C(=C\C)c2nc(cs2)C(=O)NC2CC(O)C(=O)OCc4cccc5[nH]c(c(C)c45)C(=O)SCC(NC(=O)c4csc2n4)c2nc-3cs2)n1)C(N)=O (centres unmarked) [nosiheptide]
AIR screen outcome (inhibition of AIR relative to HHR) (Rev peptide / AIR): Rev inhibitors

CO[C@@H]1[C@@H](OC(N)=O)[C@@H](O)[C@H](Oc2ccc3c(O)c(NC(=O)c4ccc(O)c(CC=C(C)C)c4)c(=O)oc3c2C)OC1(C)C [novobiocin]
binding to surface derivatized with Rev protein (Rev protein [1]): exhibited binding

O=C1C=C2C(=CCOC2O)O1 (centres unmarked) [patulin]
binding to surface derivatized with Rev protein (Rev protein [1]): exhibited binding | AIR screen outcome (inhibition of AIR relative to HHR) (Rev peptide / AIR): Rev inhibitors

CC[C@H]1OC(=O)C[C@@H](O)[C@H](C)[C@@H](O[C@@H]2O[C@H](C)C[C@H](N(C)C)[C@H]2O)[C@@H](CC=O)C[C@@H](C)C(=O)/C=C/[C@]2(C)O[C@H]2[C@@H]1C [rosamicin]
binding to surface derivatized with Rev protein (Rev protein [1]): Only the antibiotics novobiocin and patulin, which were identified in the course of screening, exhibited binding to Rev

CNC(=O)[C@@H](C)[C@H]1C(=O)/C(=C(O)/C=C/C(C)=C/[C@@H](C)[C@H]2O[C@@]3(C)O[C@H](C=C[C@@]34CO4)[C@@H]2C)C(=O)N1[C@@H]1CC[C@H](O)[C@H](C)O1 [streptolydigin]
binding to surface derivatized with Rev protein (Rev protein [1]): Only the antibiotics novobiocin and patulin, which were identified in the course of screening, exhibited binding to Rev

Rev peptide: Rev peptide, which includes aminoacids 34 to 50 of the Rev protein (TRQARRNRRRRWRERQR; UniProt P04618 34-50, looked up, fragment)
concentration above which HHR is inhibited (hammerhead ribozyme HHR): more than 1 μM | initial activity of HHR (hammerhead ribozyme HHR; 1 μM Rev): 93% | effect of Rev on wildtype HHR (hammerhead ribozyme HHR; 1 μM Rev-peptide): hardly affected | concentration above which HHR is inhibited (hammerhead ribozyme HHR; listed as Rev): above 1 μM | concentration above which AIR is inhibited (AIR): above 800 nM | effect of Rev on AIR (AIR; 250 nM Rev): activation | EC50 (AIR): 170 nM | effect of Rev on ribozyme RRR (RRR; 1 μM Rev-peptide): inhibition | IC50 (RRR; Rev peptide): 464 nM

Rev protein: intact Rev protein of HIV
concentration at which AIR is still activated (AIR): above 5 μM | inhibition of AIR by high concentrations (AIR): no observed inhibition | EC50 (AIR): 192 nM | concentration above which RRR is inhibited (RRR): above 1 μM | IC50 (RRR; Rev protein): 1700 nM

coumermycin A1
binding to surface derivatized with Rev protein (Rev protein [1]): binding | effect on wildtype HHR (hammerhead ribozyme HHR; 100 μM with 1 μM Rev-peptide): hardly affected | AIR screen outcome (inhibition of AIR relative to HHR) (Rev peptide / AIR): Rev inhibitors | reversal of the action of Rev on AIR (Rev peptide / AIR; 100 μM, 250 nM Rev): fully reversed | binding to surface derivatized with Rev peptide (Rev peptide): binding | reversal of the action of Rev on RRR (Rev peptide / RRR): fully reversed | binding to RRR-derivatized surface (RRR-RNA): no binding

B1: Seq 5 (ssRNA)
RNA: GGGAGGUGGACUCCAGCUUCGGCUGUUGAGAUACACC
binding result (Rev protein [2]): binds

B2: AIR (aptamer-inhibited ribozyme) (ssRNA)
RNA: GGGACUCGCUUCGGCUUGAGAUACCAAAAAGGGUCCUCUGAUGAGGCCGUUAGGCCGAAACUCGU
apparent K (half saturation) (Rev protein [3]): 192 nM

B3: RRR (Rev-responsive ribozyme, RBE in stem II) (ssRNA)
RNA: GGGUCCUCUGAUGAGCUCUGGGCGCAGCUUCGGCUGACGGUACUUGCGAAACUCGU
apparent K (half saturation) (Rev protein [4]): 1700 nM
